Results on two compounds are retold here after patent US7544676B2, “Sulfamoyl benzamides and methods of their use” (Adolor Corporation, priority 2005, dated 2009).

In general, pKi refers to −log10 of the Ki, conventionally taken in molar units. The low end stands for a large Ki, the high end for a small Ki. The term pEC50 denotes −log10 of the EC50, conventionally taken in molar units. Usually pIC50 stands for the IC50 on a negative log10 scale, so that one unit is a factor of ten.

Experiment [1] deals with T1, CB1 receptor (Homo sapiens, UniProt P21554).
T1 construct: expressed in transfected cells; host or cells: CHO-K1
T1 sequence (P21554 whole entry): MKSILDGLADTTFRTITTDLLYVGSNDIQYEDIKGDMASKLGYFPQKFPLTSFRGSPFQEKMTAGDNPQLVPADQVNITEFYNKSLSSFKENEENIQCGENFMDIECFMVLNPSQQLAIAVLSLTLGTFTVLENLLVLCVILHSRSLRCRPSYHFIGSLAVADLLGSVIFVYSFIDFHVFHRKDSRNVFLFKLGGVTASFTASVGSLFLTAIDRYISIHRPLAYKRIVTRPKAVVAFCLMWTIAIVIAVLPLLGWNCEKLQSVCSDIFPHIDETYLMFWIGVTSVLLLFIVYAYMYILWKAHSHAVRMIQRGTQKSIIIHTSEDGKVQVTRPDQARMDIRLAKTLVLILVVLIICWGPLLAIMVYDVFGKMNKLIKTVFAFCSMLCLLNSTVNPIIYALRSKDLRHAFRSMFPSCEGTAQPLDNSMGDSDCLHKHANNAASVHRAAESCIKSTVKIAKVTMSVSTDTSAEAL
In words: Inhibition of [3H]CP55940 binding to cloned human CB1 receptor membranes. As to the method: (§1) Ki values in receptor binding experiments were determined by Cheng-Prusoff correction of IC50 values derived from automated nonlinear regression analysis of sigmoidal titration curves using a three-parameter modification (slope set to 1.0) of the four-parameter equation described in Cheng, Y.-C. and W. H. Prusoff, Biochem. Pharmacol. 22:3099-3108 (1973) and DeLean et al., Am. J. Physiol. 235:E97-E102 (1978).
(§2) Chinese hamster ovary cells (CHO-K1), stably transfected with either hCB1 or hCB2, were washed two times with cold PBS, scraped from 500 cm^2 tissue culture plates, and pelleted by centrifugation at 1000×g for 10 min. […]
(§3) Binding assays were performed by incubating 0.2-0.6 nM (34,000-100,000 dpm) [^3H]CP55940 with membranes prepared from cells expressing cloned human CB1 or CB2 receptors in buffer A (50 mM Tris HCl, pH 7.0, 5.0 mM MgCl2, 1.0 mM EGTA and 1.0 mg/mL fatty acid free bovine serum albumin). […] The filters were rinsed 6 times with one mL of cold wash buffer (50 mM Tris HCl, pH 7.0, 5.0 mM MgCl2, 1.0 mM EGTA and 0.75 mg/mL fatty acid free bovine serum albumin), 30 μL of MicroScint 20 was added to each filter and the radioactivity on the filters determined by scintillation spectroscopy. Nonspecific binding was determined in the presence of 10 μM WIN55212-2.

Experiment [2] deals with T2, CB2 receptor (Homo sapiens, UniProt P34972).
T2 construct: expressed in transfected cells; host or cells: CHO-K1
T2 sequence (P34972 whole entry): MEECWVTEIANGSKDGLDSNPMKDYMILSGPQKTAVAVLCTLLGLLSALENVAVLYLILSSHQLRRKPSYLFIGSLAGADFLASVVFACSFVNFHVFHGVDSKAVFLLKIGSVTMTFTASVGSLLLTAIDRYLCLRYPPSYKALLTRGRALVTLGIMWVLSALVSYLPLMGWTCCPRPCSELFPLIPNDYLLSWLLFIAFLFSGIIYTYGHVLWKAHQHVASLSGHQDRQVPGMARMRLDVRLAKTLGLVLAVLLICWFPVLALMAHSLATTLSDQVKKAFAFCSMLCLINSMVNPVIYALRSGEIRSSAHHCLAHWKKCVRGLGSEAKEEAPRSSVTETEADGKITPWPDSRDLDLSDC
In words: Inhibition of [3H]CP55940 binding to cloned human CB2 receptor membranes. How it is done: as §1, §2, §3

Experiment [3] has as its target T1, CB1 receptor. In words: hCB1-mediated stimulation of [35S]GTPγS binding. In kind it is biochemical. The following applies: in vitro functional assay. As to the method:
(§4) EC50 values in functional assays were also derived from automated nonlinear regression analysis of sigmoidal titration curves using the three-parameter modification of the four-parameter equation.
Chinese hamster ovary cells (CHO-K1), stably transfected with either hCB1 or hCB2, were washed two times with cold PBS, scraped from 500 cm^2 tissue culture plates, and pelleted by centrifugation at 1000×g for 10 min. The supernatant was discarded and the pellet was resuspended in Tris assay buffer (50 mM Tris HCl, pH 7.8, containing 1.0 mM EGTA, 5.0 mM MgCl2, […], and […] aprotinin), homogenized with a Polytron homogenizer (Brinkmann) at a setting of 1 for 20 sec and centrifuged at 38,000×g for 20 min at 4° C. […]
(§5) hCB1-Mediated stimulation of [^35S]GTPγS binding was measured in a mixture containing 100-150 pM [^35S]GTPγS, 150 mM NaCl, 45 mM MgCl2, […], 0.4 mM DTT, 1 mM EGTA, 1 mg/mL fatty acid free BSA, 25 μg of membrane protein and agonist in a total volume of 250 μL of buffer A in 96 well Basic Flashplates (Perkin Elmer). After incubation at room temperature for 2 hours the plates were centrifuged at 800×g at 4° C. for 5 min and the radioactivity bound to the membranes was determined by scintillation spectrometry using the Topcount (Perkin Elmer).
On the technique in general: GTPγS resists hydrolysis and so accumulates on activated G proteins.

In experiment [4] the target is T2, CB2 receptor. In words: hCB2-mediated [35S]GTPγS binding. Format: biochemical. As to the method: as §4, §2, §5
hCB2-Mediated [35 S]GTPγS binding was measured in the same way except the assay mixture contained […] and the incubation time was 6 hours. […] After incubation at 30° C. for 2 hours, the plates were centrifuged at 800×g at 4° C. for 5 min and the radioactivity bound to the membrane was determined by scintillation spectrometry using the Topcount (Perkin Elmer).

pEC50, pIC50, pKi: −log10 of the molar value.

In the case of `CNc1ccc(C(=O)N[C@@H]2C(C)(C)[C@@H]3CC[C@@]2(C)C3)cc1S(=O)(=O)N(C)C` [Compound 1X, 3-(N,N-dimethylsulfamoyl)-4-(methylamino)-N-((1S,2S,4R)-1,3,3-trimethylbicyclo[2.2.1]heptan-2-yl)benzamide], the pKi was 5.71 in experiment [1] and 8.05 in experiment [2]. The “in vitro CB1 receptor agonist activity” value in experiment [3] was “no in vitro CB1 receptor agonist activity”. Besides, the pEC50 in experiment [4] (agonist mode, read-out: in vitro CB2 receptor agonist potency (EC50)) is 7.73.

With `COCCNc1ccc(C(=O)NC2C(C)(C)[C@@H]3CC[C@@]2(C)C3)cc1S(=O)(=O)N1CCOCC1` (stereo partly drawn) [Compound 2D, 4-(2-methoxyethylamino)-3-(morpholinosulfonyl)-N-((1S,4R)-1,3,3-trimethylbicyclo[2.2.1]heptan-2-yl)benzamide], the figures for the pKi in experiment [1] and in experiment [2] were 5.88 and 8.80, respectively. Moreover, the negative-log IC50 (pIC50) in experiment [4] (antagonist mode, read-out: in vitro CB2 receptor antagonist potency (IC50)) was 8.07.
